Laboratory results: patent US20220289794A1, “SYNTHETIC ANTIMICROBIAL PEPTIDES” (priority 2019, published 2022)
≈ marks a conversion by molar mass, not a printed value. Like-named read-outs stand apart in the source and are kept apart here.

Experiments:
[1] = tested on: Enterococcus faecium ATCC 27270; assay: microbe, parasite or virus in culture; conditions: ATCC27270
E. coli = assay: microbe, parasite or virus in culture; conditions: Escherichia coli, ATCC25922, read-out: MIC Escherichia coli (ATCC 25922)
[2] = tested on: Escherichia coli (ATCC 25922); assay: microbe, parasite or virus in culture; conditions: ATCC25922, read-out: E. coli (ATCC 25922) MIC
KPC = assay: microbe, parasite or virus in culture; conditions: Klebsiella pneumoniae, ATCCBAA1705, read-out: MIC Klebsiella pneumoniae (ATCC BAA-1705)
PSA = assay: microbe, parasite or virus in culture; conditions: Pseudomonas aeruginosa, ATCC27883, read-out: MIC Pseudomonas aeruginosa (ATCC 27883)
[3] = tested on: Enterococcus faecium ATCC 700221; assay: microbe, parasite or virus in culture; conditions: ATCC700221
[4] = tested on: Escherichia coli (E. Coli, ATCC 25922); assay: microbe, parasite or virus in culture; conditions: ATCC25922, 24 h
[5] = tested on: Enterococcus faecalis ATCC 51575; assay: microbe, parasite or virus in culture; conditions: ATCC51575
[6] = tested on: Enterococcus faecalis ATCC 29212; assay: microbe, parasite or virus in culture; conditions: ATCC29212
[7] = tested on: Pseudomonas aeruginosa (PSA, ATCC 27883); assay: Synergy checkerboard assay (FIC index); format: cell-based; conditions: Pseudomonas aeruginosa (ATCC 27883), antibiotic alone
[8] = tested on: Streptococcus pneumoniae ATCC 51938; assay: microbe, parasite or virus in culture; conditions: ATCC51938
[9] = tested on: Bacillus subtilis (ATCC-6633); assay: microbe, parasite or virus in culture; conditions: ATCC6633
[10] = tested on: Pseudomonas aeruginosa (ATCC 27883); assay: microbe, parasite or virus in culture; conditions: ATCC27883, read-out: PSA (ATCC 27883 MIC)
MRSA = assay: microbe, parasite or virus in culture; conditions: Staphylococcus aureus
[11] = tested on: Streptococcus pneumoniae ATCC 49619; assay: microbe, parasite or virus in culture; conditions: ATCC49619
[12] = tested on: Methicillin-resistant Staphylococcus aureus MRSA (ATCC BAA-1556); assay: microbe, parasite or virus in culture; conditions: ATCCBAA1556|MRSA, 24 h
[13] = tested on: Bacillus cereus (ATCC-13061); assay: microbe, parasite or virus in culture; conditions: ATCC13061
[14] = tested on: Pseudomonas aeruginosa (PSA, ATCC 27883); assay: microbe, parasite or virus in culture; conditions: ATCC27883, 24 h
[15] = tested on: Escherichia coli (E. Coli, ATCC 25922); conditions: Escherichia coli (ATCC 25922); antibiotic alone
[16] = tested on: Staphylococcus aureus ATCC 29213; assay: microbe, parasite or virus in culture; conditions: ATCC29213

C[C@@H](O)[C@H]1C(=O)N2C(C(=O)O)=C(S[C@@H]3CN[C@H](C(=O)N(C)C)C3)[C@H](C)[C@H]12 [Meropenem]
MIC [1]: 0.5 µg/mL (≈ 1.3 µM) | MIC (E. coli): 0.125 µg/mL (≈ 0.326 µM) | MIC [2]: 1 µg/mL (≈ 2.61 µM) | MIC (KPC): 8 µg/mL (≈ 20.9 µM) | MIC (PSA): 0.5 µg/mL (≈ 1.3 µM) | MIC [3]: 64 µg/mL (≈ 167 µM) | MIC ([4]; read-out: Escherichia coli (ATCC 25922) MIC, Table 29, [R6W4] (IFX-318), antibiotics alone and PHY-MIX (1:1 w/w)): 1 µg/mL (≈ 2.61 µM) | MIC ([4]; read-out: Escherichia coli (ATCC 25922) MIC, Table 30, [R5W4K] (IFX-315), antibiotics alone and PHY-MIX (1:1 w/w)): 1 µg/mL (≈ 2.61 µM) | MIC ([4]; read-out: Escherichia coli (ATCC 25922) MIC, Table 31, [R5W4] (IFX-301), antibiotics alone and PHY-MIX (1:1 w/w)): 1 µg/mL (≈ 2.61 µM) | MIC ([4]; read-out: Escherichia coli (ATCC 25922) MIC, Table 32, meropenem, IFX-315, their conjugate and Phy-Mix 1:1): 1 µg/mL (≈ 2.61 µM) | MIC [5]: 8 µg/mL (≈ 20.9 µM) | MIC [6]: 2 µg/mL (≈ 5.22 µM) | MIC of antibiotic [7]: 1 µg/mL | MIC of antibiotic ([7]; Table 26): 1 µg/mL | antibiotic MIC ([7]; Table 27): 1 µg/mL | MIC [8]: 0.25 µg/mL (≈ 0.652 µM) | MIC [9]: 0.25 µg/mL (≈ 0.652 µM) | MIC [10]: 1 µg/mL (≈ 2.61 µM) | MIC (MRSA; ATCCBAA1556 / MRSA, read-out: MIC MRSA (ATCC BAA-1556)): 4 µg/mL (≈ 10.4 µM) | MIC (MRSA; MRSA): 2 µg/mL (≈ 5.22 µM) | MIC [11]: 0.25 µg/mL (≈ 0.652 µM) | MIC ([12]; read-out: MRSA (ATCC BAA-1556) MIC, Table 29, [R6W4] (IFX-318), antibiotics alone and PHY-MIX (1:1 w/w)): 2 µg/mL (≈ 5.22 µM) | MIC ([12]; read-out: MRSA (ATCC BAA-1556) MIC, Table 30, [R5W4K] (IFX-315), antibiotics alone and PHY-MIX (1:1 w/w)): 2 µg/mL (≈ 5.22 µM) | MIC ([12]; read-out: MRSA (ATCC BAA-1556) MIC, Table 31, [R5W4] (IFX-301), antibiotics alone and PHY-MIX (1:1 w/w)): 2 µg/mL (≈ 5.22 µM) | MIC ([12]; read-out: MRSA (ATCC BAA-1556) MIC, Table 32, meropenem, IFX-315, their conjugate and Phy-Mix 1:1): 2 µg/mL (≈ 5.22 µM) | MIC [13]: 4 µg/mL (≈ 10.4 µM) | MIC ([14]; read-out: Pseudomonas aeruginosa (ATCC 27883) MIC, Table 28, IFX-031, antibiotics alone and PHY-MIX (1:1 w/w)): 1 µg/mL (≈ 2.61 µM) | MIC ([14]; read-out: Pseudomonas aeruginosa (ATCC 27883) MIC, Table 29, [R6W4] (IFX-318), antibiotics alone and PHY-MIX (1:1 w/w)): 1 µg/mL (≈ 2.61 µM) | MIC ([14]; read-out: Pseudomonas aeruginosa (ATCC 27883) MIC, Table 30, [R5W4K] (IFX-315), antibiotics alone and PHY-MIX (1:1 w/w)): 1 µg/mL (≈ 2.61 µM) | MIC ([14]; read-out: Pseudomonas aeruginosa (ATCC 27883) MIC, Table 31, [R5W4] (IFX-301), antibiotics alone and PHY-MIX (1:1 w/w)): 1 µg/mL (≈ 2.61 µM) | MIC ([14]; read-out: Pseudomonas aeruginosa (ATCC 27883) MIC, Table 32, meropenem, IFX-315, their conjugate and Phy-Mix 1:1): 1 µg/mL (≈ 2.61 µM) | MIC of antibiotic [15]: 1 µg/mL | MIC [16]: 0.25 µg/mL (≈ 0.652 µM)
